The values below come from publication PMC11062906 (Nature, 2024).

Assay [1] has as its target Bombyx mori gustatory receptor Gr9 (BmGr9) (Bombyx mori) (UniProt B3GTD7). The assay is described as follows: native gel or EMSA; Coomassie-stained denaturing and native gels of purified BmGr9; effective molecular weight approximately 700 kDa including detergent micelle. (In general: Mobility shift assays separate free from complexed probe on a gel.)
Assay [2] concerns the target T1, BmGr9 (Bombyx mori, UniProt B3GTD7). Nature of the assay: Intrinsic tryptophan fluorescence of detergent-solubilized purified BmGr9. It counts as binding.
Assay [3] concerns the target T1, BmGr9. Nature of the assay: Cell-based GCaMP calcium flux assay, wild-type BmGr9. Conditions: for Activation of BmGr9 (change in fluorescence) by sweet compound: 100 mM sweet compound, HEK293 cells with BmGr9 plus GCaMP vs GCaMP only.
The target in assay [4] is T1, BmGr9. The note with it: electrophysiology; ref Sato et al. PNAS, 2011; cited from earlier work.
Assay [5] concerns BmGr9 Q443, F444, and Q445 mutants. Nature of the assay: GCaMP assay, L-sorbose on BmGr9 Q443, F444 and Q445 mutants. It is filed as cell-based, Bombyx mori. The note with it: author rebuttal.

“Also recorded” adds a separate entry of the source.

T1 sequence (B3GTD7 entry or part of it): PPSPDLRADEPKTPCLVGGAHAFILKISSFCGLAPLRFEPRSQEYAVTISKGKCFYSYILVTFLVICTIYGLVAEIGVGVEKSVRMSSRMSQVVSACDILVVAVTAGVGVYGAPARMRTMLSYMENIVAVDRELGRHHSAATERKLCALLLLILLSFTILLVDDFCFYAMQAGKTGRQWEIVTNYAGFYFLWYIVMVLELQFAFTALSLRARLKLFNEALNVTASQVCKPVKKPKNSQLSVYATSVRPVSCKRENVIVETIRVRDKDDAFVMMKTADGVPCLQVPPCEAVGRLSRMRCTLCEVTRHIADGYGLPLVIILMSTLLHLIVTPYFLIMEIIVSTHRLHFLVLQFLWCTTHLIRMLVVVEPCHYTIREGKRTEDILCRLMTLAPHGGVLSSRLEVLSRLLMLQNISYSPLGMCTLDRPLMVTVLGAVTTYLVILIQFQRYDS

Broadly, the stoichiometry N is a count of units in the complex or per binding partner. In turn, “Bombyx mori gustatory receptor Gr9 (BmGr9) (from UniProt B3GTD7 2-449)” returned a stoichiometry N in assay [1] of 4.
Take `O=C(CO)[C@@H](O)[C@H](O)[C@@H](O)CO` [L-sorbose]: the Kd in assay [2] (KD (apparent affinity, tryptophan fluorescence), purified BmGr9 in digitonin, n = 4, 95% CI in parentheses) worked out at 63 mM. In assay [2] (purified BmGr9 in digitonin, n = 4, 95% CI in parentheses), the “KD (apparent affinity, tryptophan fluorescence)” value is recorded as “affinity close to that of D-fructose”. Further, in assay [3], the “Activation of BmGr9 (change in fluorescence) by sweet compound” value is on record as “not statistically different than GCaMP alone; also recorded: did not activate BmGr9 significantly”. Moreover, the “maximum activity in dose-response” value in assay [3] (titration, n = 5, vs GCaMP-only control wells) is recorded as “less than control wells with GCaMP only”. Besides, the “activation of BmGr9 in oocytes” value in assay [4] was “not to activate”. Also, the “activation of BmGr9 mutants by L-sorbose” value in assay [5] is “does not appear that L-sorbose can activate any of these BmGr9 mutants”.
As for `OC[C@H]1O[C@H](O[C@]2(CCl)O[C@H](CCl)[C@@H](O)[C@@H]2O)[C@H](O)[C@@H](O)[C@H]1Cl` [sucralose], in assay [3], the “Activation of BmGr9 (change in fluorescence) by sweet compound” value is “significantly different activity”.
With `OC[C@H]1O[C@@](CO)(O[C@H]2O[C@H](CO)[C@@H](O)[C@H](O)[C@H]2O)[C@@H](O)[C@@H]1O` [sucrose], the “blue shift in the tryptophan fluorescence emission spectrum” value in assay [2] (titration of purified BmGr9) is “did not induce a shift”.
